From US7078386B2, “Enhancing agent for nerve growth factor production comprising a compound having a coumarin backbone or a compound having a 2-dimethyl chroman backbone” (Takara Bio, Inc., priority 2001, dated 2006) come the findings set out here.

Data set [1] relates to L-M cells (ATCC CCL-1.2) from murine fibroblasts. As to the kind of experiment: Enhancing activity for NGF production: NGF concentration in culture medium by enzyme immunoassay. The class given is cell-based. As to conditions: 20 hours culture. The protocol: (2) The enhancing activity for NGF production was determined for the fraction 10 derived from root portions of Angelica keiskei koidz., of which structure was identified in item (1) of Example 1. L-M cells (ATCC CCL-1.2) from murine fibroblasts were suspended in an M199 medium (manufactured by ICN) containing 0.5% bactopeptone (manufactured by Gibco) so as to have a concentration of 1.5×10^5 cells/ml. The suspension was put in a 96 well plate in an amount of 0.1 ml each well, and the cells were aseptically cultured. After culturing the cells for 3 days, the medium was removed therefrom, and exchanged with an M199 medium containing 0.5% bovine serum albumin (manufactured by Sigma). The fraction 10 derived from root portions of Angelica keiskei koidz. was added as the sample thereto, and the cells were cultured for 20 hours. After the termination of the culture, the concentration of the NGF in the culture medium was assayed by an enzyme immunoassay method (NGF Emax Immuno Assay System, manufactured by Promega). The NGF concentration when added was expressed, assuming that the NGF concentration in the cell culture medium with no addition of the sample is 100%, whereby the enhancing activity for NGF production of the sample was evaluated. The experiment was carried out twice, and an average value was taken. As a result, it was clarified that the fraction 10 derived from root portions of Angelica keiskei koidz., namely 3′-O-β-D-glucopyranoyl khellactone, has an enhancing activity for NGF production.

The subject of a further data set is rat. As to the kind of experiment: Single-dose oral administration toxicity in rat. The data set is classed as in vivo. As to conditions: orally administered, single dose at 1 g/kg of the body weight. The protocol: No toxicity is found when the above-mentioned effective ingredient usable in the present invention is administered in an amount effective for the exhibition of its action. […] Also, incidence of adverse actions is not found.

`COc1ccc(C(=O)C=Cc2ccc(O)cc2)c2c1CC(O)C(C)(C)O2` (stereo not drawn) [3-hydroxy-8-[3-(4-hydroxyphenyl)-acryloyl]-5-methoxy-2-dimethyl chroman]: the “Amount of NGF Produced” value in data set [1] (Table 6, sample 200 μM, no-sample control = 100% (0.668 ng/ml)) amounted to 457.7%. The cases of death result in the data set on rat was “no cases of death”.

On to `CC1(C)Oc2ccc3ccc(=O)oc3c2C(O)C1OC1OC(CO)C(O)C(O)C1O` [Fraction 10, 3′-O-β-D-glucopyranoyl khellactone], for which the “Amount of NGF Produced” value in data set [1] (Table 1, sample 2.00 mg/ml, no-sample control = 100% (0.382 ng/ml)) amounted to 565.5%.

Regarding `CC(C)=CCc1c(OC2OC(CO)C(O)C(O)C2O)ccc2ccc(=O)oc12` [Fraction 13-2, 7-O-β-D-glucopyranosyloxy-8-prenyl coumarin], in data set [1] (Table 2, sample 1.00 mg/ml, no-sample control = 100% (0.053 ng/ml)), the “Amount of NGF Produced” value was 792.1%.

For the molecule `COc1ccc(C(=O)O)c2c1CC(O)C(C)(C)O2` (stereo not drawn) [Fraction 18-4, 8-carboxyl-3-hydroxy-5-methoxy-2-dimethyl chroman], the “Amount of NGF Produced” value in data set [1] (Table 3, sample 0.0375 mg/ml, no-sample control = 100% (0.027 ng/ml)) was 2510.4%. The cases of death entry in the data set on rat was “no cases of death”.

For the molecule `CC(C)=CCc1cc2ccc(=O)oc2cc1O[C@@H]1O[C@H](CO)[C@@H](O)[C@H](O)[C@H]1O` [Fraction 19/20-5, 7-β-D-glucopyranosyloxy-6-prenyl coumarin], in data set [1] (Table 4, sample 1.00 mg/ml, no-sample control = 100% (0.063 ng/ml)), the “Amount of NGF Produced” value is reported as 487.9%.

Regarding `C/C=C(/C)C(=O)OC1c2c(ccc3ccc(=O)oc23)OC(C)(C)C1O[C@@H]1O[C@H](CO[C@@H]2O[C@H](CO)[C@@H](O)[C@H](O)[C@H]2O)[C@@H](O)[C@H](O)[C@H]1O` (stereo partly drawn) [Fraction 19/20-6, 4′-O-angeloyl-3′-O-[6-O-(β-D-glucopyranosyl)-β-D-glucopyranosyl]-khellactone], the “Amount of NGF Produced” value in data set [1] (Table 5, sample 1.00 mg/ml, no-sample control = 100% (0.063 ng/ml)) amounted to 337.7%. Moreover, in the data set with rat, the cases of death result is recorded as “no cases of death”.
